These results are taken from ChEMBL document CHEMBL5518159, “Thiazole-based analogues as potential antibacterial agents against methicillin-resistant Staphylococcus aureus (MRSA) and their SAR elucidation” (Eur J Med Chem, 2023).

Values after ≈ are worked out from the molar mass of the structure shown.

For assay [1], the system named is Staphylococcus aureus. The assay is described as follows: Antibacterial activity against methicillin-resistant Staphylococcus aureus assessed as inhibition of bacterial growth measured after 24 hrs by broth micro-dilution method. In kind it is functional. For orientation: In broth dilution the organism is exposed to a series of concentrations in liquid medium.
In assay [2] the test system is Staphylococcus aureus. The assay is described as follows: Antibacterial activity against […] Staphylococcus aureus ATCC 6538 assessed as reduction in bacterial growth incubated for 24 hrs by broth micro-dilution method. In kind it is functional.
Assay [3] has as its system Escherichia coli. Nature of the assay: Antibacterial activity against Escherichia coli ATCC 35210 assessed as reduction in microbial growth. In kind it is functional.
The test system of assay [4] is Escherichia coli. Nature of the assay: Antibiofilm activity against Escherichia coli ATCC 25922 assessed as reduction in biofilm formation at 50 uM incubated for 24 hrs by crystal violet staining based analysis relative to control. In kind it is functional. Set-up: scale not given: the % may be the effect or the level left.
Assay [5] relates to Staphylococcus aureus. Nature of the assay: Antibacterial activity against Methicillin-resistant Staphylococcus aureus […] assessed as reduction in microbial growth incubated for 18 to 24 hrs by broth micro-dilution method. In kind it is functional. The note with it: time 18-24 hrs.
The subject of assay [6] is Escherichia coli. The assay is described as follows: Antibacterial activity against Escherichia coli ATCC 25922 assessed as reduction in bacterial growth incubated for 18 to 24 hrs by broth microdilution method. In kind it is functional. The note with it: time 18-24 hrs.
In assay [7] the test system is Staphylococcus aureus. Nature of the assay: Antibacterial activity against […] Staphylococcus aureus ATCC 6538 assessed as bacterial growth inhibition incubated for 24 hrs by broth micro-dilution method. In kind it is functional.
Assay [8] relates to Staphylococcus aureus. The assay is described as follows: Antibacterial activity against clinical isolate Methicillin resistant Staphylococcus aureus 2658 RCMB assessed as reduction in microbial growth incubated for 16 to 24 hrs by CLSI-based Muller Hinton broth based microdilution method. The following applies: time 16-24 hrs. In kind it is functional.
Assay [9] relates to Staphylococcus aureus. Nature of the assay: Antibacterial activity against methicillin-resistant Staphylococcus aureus ATCC 43300 assessed as bacterial growth inhibition incubated for 24 hrs by broth dilution method. In kind it is functional.
Assay [10] has as its system Staphylococcus aureus. The assay is described as follows: Antibacterial activity against methicillin-resistant Staphylococcus aureus ATCC 43300 assessed as reduction in bacterial growth by CLSI protocol based broth microdilution method. In kind it is functional.
Assay [11] relates to Staphylococcus aureus. Nature of the assay: Antibacterial activity against […] Staphylococcus aureus ATCC 29213 assessed as reduction in bacterial growth incubated for 16 to 20 hrs by CLSI based two-fold serial dilution method. In kind it is functional. The note with it: time 16-20 hrs.
In assay [12] the test system is Staphylococcus aureus. The assay is described as follows: Antibacterial activity against Methicillin-resistant Staphylococcus aureus AUMC 261 assessed as bacterial growth inhibition incubated for 24 hrs by broth microdilution analysis. In kind it is functional.
Assay [13] relates to Staphylococcus aureus. The assay is described as follows: Antibacterial activity against methicillin-resistant Staphylococcus aureus ATCC 33592 assessed as reduction in microbial growth incubated for 16 to 20 hrs by CLSI based two-fold serial dilution method. In kind it is functional. The following applies: time 16-20 hrs.
For assay [14], the target named is DNA gyrase (Staphylococcus aureus, UniProt P0A0K8+P20831). Nature of the assay: Inhibition of Staphylococcus aureus DNA gyrase incubated for 30 mins by fluorescence based analysis. In kind it is protein-complex assay.
Chain of DNA gyrase (P0A0K8 whole entry): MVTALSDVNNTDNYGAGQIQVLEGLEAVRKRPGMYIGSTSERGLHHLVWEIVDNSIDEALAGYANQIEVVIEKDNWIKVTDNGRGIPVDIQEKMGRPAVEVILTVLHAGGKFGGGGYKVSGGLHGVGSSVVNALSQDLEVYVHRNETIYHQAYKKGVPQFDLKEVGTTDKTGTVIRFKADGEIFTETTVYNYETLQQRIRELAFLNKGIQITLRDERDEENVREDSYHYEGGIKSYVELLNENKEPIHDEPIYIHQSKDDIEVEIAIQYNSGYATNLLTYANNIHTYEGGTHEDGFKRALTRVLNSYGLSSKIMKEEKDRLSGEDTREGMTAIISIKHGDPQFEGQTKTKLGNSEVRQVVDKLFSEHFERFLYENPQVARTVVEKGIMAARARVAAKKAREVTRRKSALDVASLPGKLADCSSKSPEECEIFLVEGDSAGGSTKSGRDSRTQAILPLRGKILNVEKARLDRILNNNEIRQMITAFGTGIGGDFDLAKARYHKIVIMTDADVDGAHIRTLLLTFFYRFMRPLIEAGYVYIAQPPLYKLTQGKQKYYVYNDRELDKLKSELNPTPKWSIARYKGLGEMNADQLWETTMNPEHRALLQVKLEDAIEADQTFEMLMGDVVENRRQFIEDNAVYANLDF
Chain of DNA gyrase (P20831 whole entry): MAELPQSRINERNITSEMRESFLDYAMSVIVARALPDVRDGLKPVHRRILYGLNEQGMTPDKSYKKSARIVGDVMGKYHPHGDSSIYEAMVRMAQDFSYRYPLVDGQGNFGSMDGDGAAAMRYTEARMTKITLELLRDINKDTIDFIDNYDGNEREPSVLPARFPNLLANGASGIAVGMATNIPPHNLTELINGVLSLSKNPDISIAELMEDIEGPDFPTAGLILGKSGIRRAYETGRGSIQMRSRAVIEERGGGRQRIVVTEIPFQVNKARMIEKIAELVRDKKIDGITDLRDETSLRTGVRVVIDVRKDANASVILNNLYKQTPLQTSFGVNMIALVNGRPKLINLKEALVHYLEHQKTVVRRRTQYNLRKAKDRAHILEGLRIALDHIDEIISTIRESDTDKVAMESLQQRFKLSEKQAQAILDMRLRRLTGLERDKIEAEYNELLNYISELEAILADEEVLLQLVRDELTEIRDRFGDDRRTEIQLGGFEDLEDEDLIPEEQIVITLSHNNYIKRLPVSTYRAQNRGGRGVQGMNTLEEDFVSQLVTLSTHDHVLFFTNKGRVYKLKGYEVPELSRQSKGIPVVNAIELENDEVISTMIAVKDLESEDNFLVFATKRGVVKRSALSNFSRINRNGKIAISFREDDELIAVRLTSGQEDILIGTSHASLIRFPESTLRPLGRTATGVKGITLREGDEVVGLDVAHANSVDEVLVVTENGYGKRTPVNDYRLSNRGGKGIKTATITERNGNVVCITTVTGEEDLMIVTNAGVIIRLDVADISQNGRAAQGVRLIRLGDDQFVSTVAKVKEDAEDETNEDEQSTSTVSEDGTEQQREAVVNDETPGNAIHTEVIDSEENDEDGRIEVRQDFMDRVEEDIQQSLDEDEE
Assay [15] relates to Staphylococcus aureus. Nature of the assay: Antibacterial activity against Staphylococcus aureus ATCC 43300 assessed as microbial inhibition incubated for 24 hrs by broth micro-dilution method. In kind it is functional.
The subject of assay [16] is Staphylococcus aureus. The assay is described as follows: Antibacterial activity against Methicillin-resistant Staphylococcus aureus assessed as reduction of microbial growth by Muller Hinton broth based dilution assay. In kind it is functional.
Assay [17] concerns Staphylococcus aureus. Nature of the assay: Antibacterial activity against Staphylococcus aureus ATCC 49444 assessed as reduction in microbial growth. In kind it is functional.

Broadly, the MIC is the least concentration at which growth counts as inhibited. Consider `Cc1cnc(/C=c2\[nH]c(=O)/c(=C\c3cccc(Br)c3)s2)s1`, for which, in [1], the MIC is 40 µg/mL (≈ 105 µM).
With `O=C1CSC(c2ccc([N+](=O)[O-])cc2)N1c1nc2ccc(Cl)cc2s1` (centres undefined), the MIC in [2] amounted to 100 µg/mL (≈ 255 µM).
For `CC(C)Cc1nc(N2CCN(CC(=O)Nc3nccs3)CC2)c(C#N)c2c1CCC2`, the MIC in assay [3] worked out at 230 µg/mL.
Turning to `CCOC1=NC(=N/N=C2\C(=O)Nc3ccc(Br)cc32)/S/C1=N/Nc1ccc([N+](=O)[O-])cc1`, in [4], the Activity was 90%. Besides, the figures for the MIC in assay [5] and in assay [6] were 8 µg/mL and 8 µg/mL (≈ 15.5 µM), respectively.
Consider `CCOc1ccc2nc(N3C(=O)CSC3c3ccc(OC)cc3)sc2c1` (centres undefined), for which the MIC in assay [7] was 90 µg/mL (≈ 233 µM).
As to `Cc1nc(-c2ccc3ccccc3c2)sc1-c1nnc(NC(=N)N)o1`, in assay [8], the MIC amounted to 1.9 µg/mL.
What is called MBC is the lowest tested concentration that kills the bacteria rather than only halting them. As to `O=C1CSC(c2ccc([N+](=O)[O-])cc2)N1c1nc2ccc(OC(F)(F)F)cc2s1` (centres undefined), the MBC in assay [9] stood at 120 µg/mL (≈ 272 µM). The MIC in [10] came out at 250 µg/mL (≈ 566 µM).
Take `CCCCCNc1ccc(S(=O)(=O)CC(=O)c2nccs2)cc1`: the MIC in assay [11] was found to be 1 µg/mL (≈ 2.84 µM).
Take `O=C1CSC(c2ccc(F)cc2)N1c1nc2ccc(OC(F)(F)F)cc2s1` (centres undefined): in [9], the MBC worked out at 120 µg/mL (≈ 290 µM). Also, the MIC in assay [10] was 250 µg/mL (≈ 603 µM).
As for `Cc1nc(-c2ccc3ccccc3c2)sc1-c1nnc(NC(=N)N2CCN(C)CC2)o1`, in assay [8], the MIC turned out to be 1.9 µg/mL.
As for `O=C(O)c1cn(C2CC2)c2cc(N3CCN(C(=O)CN4C(=O)S/C(=C\c5ccc(F)cc5)C4=O)CC3)c(F)cc2c1=O`, in assay [12], the MIC was 2.88 µg/mL (≈ 4.84 µM).
In the case of `O=C1CSC(c2ccc([N+](=O)[O-])cc2)N1c1nc2c(Cl)cccc2s1` (centres undefined), in assay [7], the MIC is 90 µg/mL (≈ 230 µM).
Consider `O=C(O)c1cn(C2CC2)c2cc(N3CCN(C(=O)CN4C(=O)S/C(=C\c5ccoc5)C4=O)CC3)c(F)cc2c1=O`, for which the MIC in assay [12] came to 2.88 µg/mL (≈ 5.08 µM).
As for `O=C1CSC(c2ccc(Cl)cc2)N1c1nc2ccc(OC(F)(F)F)cc2s1` (centres undefined), in [9], the MBC is 120 µg/mL (≈ 279 µM). Besides, the MIC in [10] stood at 250 µg/mL (≈ 580 µM).
As for `COc1ccc(N/N=C2/S/C(=N\N=C3/C(=O)Nc4ccc(Br)cc43)N=C2C)cc1`, the values for the MIC in assay [5] and in assay [6] were 1 µg/mL and 1 µg/mL (≈ 2.12 µM), respectively.
Regarding `CCCCCCNc1ccc(S(=O)(=O)CC(=O)c2nccs2)cc1`, the MIC in assay [11] was found to be 1 µg/mL (≈ 2.73 µM).
`CCn1cc(-c2csc(N)n2)c(=O)c2cc(F)c(N3CCN(Cc4ccc(Cl)cc4Cl)CC3)cc21`: the MIC in assay [13] worked out at 8 µg/mL.
For orientation: IC50 means the concentration at which inhibition is half-maximal. For `O=S(=O)(c1ccc2nc3s/c(=N/N=C\c4cccs4)n(-c4ccc(Cl)cc4)c3nc2c1)N1CCOCC1`, in [14], half-maximal inhibition (IC50) was put at 10.4 µM. Besides, the MIC in [15] was found to be 1.25 µg/mL (≈ 2.19 µM).
For the compound `O=C1CSC(c2cccc(Cl)c2Cl)N1c1nc2ccc(OC(F)(F)F)cc2s1` (centres undefined), in [9], the MBC stood at 120 µg/mL (≈ 258 µM). In addition, the MIC in [10] amounted to 250 µg/mL (≈ 537 µM).
On to `Cc1ccc(C2SCC(=O)N2c2nc3ccc(OC(F)(F)F)cc3s2)cc1` (centres undefined), for which the MBC in [9] is 120 µg/mL (≈ 292 µM). In assay [10], the MIC was 250 µg/mL (≈ 609 µM).
On to `O=C(/C(=C/c1ccc(-c2ccc([N+](=O)[O-])cc2)cc1)Oc1ccc2c(CN(CCO)CCO)cc(=O)oc2c1)c1nccs1`, for which, in assay [16], the MIC amounted to 4 µg/mL.
With `O=C1CSC(c2ccc(O)cc2)N1c1nc2ccc(OC(F)(F)F)cc2s1` (centres undefined), the MBC in [9] was 120 µg/mL (≈ 291 µM). Also, the MIC in assay [10] is 250 µg/mL (≈ 606 µM).
On to `COc1ccc(/C=C(\Oc2ccc3c(CN(CCO)CCO)cc(=O)oc3c2)C(=O)c2nccs2)cc1`, for which, in assay [16], the MIC is 2 µg/mL.
Regarding `O=c1c2ccccc2nc(C(c2nccs2)c2nccs2)n1-c1ccc(F)cc1`, the MIC in [17] was found to be 32 µg/mL.
